{"source": "paper PMC8538066", "about": "“Purification and Identification of Novel Xanthine Oxidase Inhibitory Peptides Derived from Round Scad (Decapterus maruadsi) Protein Hydrolysates” (Marine Drugs, 2021)", "key": {"[1]": {"biological_target": "T1, xanthine oxidase (XO) (Bos taurus, UniProt P80457)", "T1 construct": "purchased Sigma Chemical Co. (St. Louis, MO, USA)", "T1 sequence (P80457 whole entry)": "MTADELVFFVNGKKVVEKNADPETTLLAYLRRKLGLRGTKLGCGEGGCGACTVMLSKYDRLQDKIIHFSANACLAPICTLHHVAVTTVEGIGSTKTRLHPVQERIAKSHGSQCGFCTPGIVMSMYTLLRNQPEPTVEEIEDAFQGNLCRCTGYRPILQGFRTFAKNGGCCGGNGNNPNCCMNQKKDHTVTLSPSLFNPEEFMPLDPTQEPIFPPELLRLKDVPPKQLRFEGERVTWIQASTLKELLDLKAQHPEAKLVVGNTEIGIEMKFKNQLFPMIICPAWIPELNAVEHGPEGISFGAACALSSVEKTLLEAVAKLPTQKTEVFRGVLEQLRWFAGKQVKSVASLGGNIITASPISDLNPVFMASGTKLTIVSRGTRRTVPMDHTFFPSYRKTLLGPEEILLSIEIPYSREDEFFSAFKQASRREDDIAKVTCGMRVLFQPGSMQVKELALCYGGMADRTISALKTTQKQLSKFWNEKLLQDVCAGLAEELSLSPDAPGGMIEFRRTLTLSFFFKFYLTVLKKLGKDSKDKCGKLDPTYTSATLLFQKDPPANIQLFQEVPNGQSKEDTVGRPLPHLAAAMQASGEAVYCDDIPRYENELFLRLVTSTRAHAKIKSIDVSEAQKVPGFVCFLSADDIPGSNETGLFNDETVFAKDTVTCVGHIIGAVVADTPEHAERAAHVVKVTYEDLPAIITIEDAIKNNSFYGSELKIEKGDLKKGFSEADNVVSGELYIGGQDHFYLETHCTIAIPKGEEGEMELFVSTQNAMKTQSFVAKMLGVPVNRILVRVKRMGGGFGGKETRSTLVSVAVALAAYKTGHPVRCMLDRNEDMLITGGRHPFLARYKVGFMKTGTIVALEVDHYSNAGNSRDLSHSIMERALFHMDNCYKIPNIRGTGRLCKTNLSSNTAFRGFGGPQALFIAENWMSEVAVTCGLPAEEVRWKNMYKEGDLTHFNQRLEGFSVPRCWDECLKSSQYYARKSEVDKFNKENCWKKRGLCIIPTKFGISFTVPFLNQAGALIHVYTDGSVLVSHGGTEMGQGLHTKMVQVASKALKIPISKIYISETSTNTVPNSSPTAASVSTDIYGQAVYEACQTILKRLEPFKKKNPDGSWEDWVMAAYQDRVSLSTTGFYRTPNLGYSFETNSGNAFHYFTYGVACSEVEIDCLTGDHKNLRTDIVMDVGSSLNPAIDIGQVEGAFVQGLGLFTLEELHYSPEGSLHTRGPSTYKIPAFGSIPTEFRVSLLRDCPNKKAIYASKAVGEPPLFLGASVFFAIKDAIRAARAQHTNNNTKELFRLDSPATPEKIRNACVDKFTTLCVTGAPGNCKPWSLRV", "assay": "XO inhibitory activity assay (rate of uric acid formation, absorbance 290 nm)", "type": "biochemical", "conditions": "peptide 5 mM; XO 0.05 U/mL, pre-incubation 37 °C 30 min, xanthine 0.42 mM, 20 mM sodium carbonate buffer pH 7.5, 290 nm; each sample tested three times", "protocol": "The XO inhibitory activity was measured by quantifying the rate of uric acid produced in the enzyme-catalyzed reaction. All samples were dissolved in 20 mM sodium carbonate buffer at pH 7.5. […] During the reaction, the dynamic changes of the absorbance of the sample were continuously recorded at 290 nm. Each sample was tested three times. The XO inhibitory activity was calculated using the following formula:Inhibition (%) = (V1 − V2)/V1 × 100%(1) where V1 is the initial enzymatic reaction rate of the blank group, V2 is the initial enzymatic reaction rate of sample group."}, "[2]": {"biological_target": "T1, xanthine oxidase (XO)", "assay": "Reversibility and type of XO inhibition (v vs enzyme plots; Lineweaver-Burk plots)", "type": "biochemical", "conditions": "for type of XO inhibition: Lineweaver-Burk, peptide 0 and 5 mM, XO 0.05 U/mL, xanthine 0-0.4 mM, Km increased, Vmax decreased; for reversibility of XO inhibition: inhibitor 0, 5, 10 and 20 mM, XO 0 to 0.1 U/mL, xanthine 0.4 mM, 37 °C 30 min, pH 7.5", "protocol": "The plots of ν (ΔOD290nm/min) versus the XO (U/mL) at different concentrations of the inhibitors (peptides) were constructed to determine the reversibility of inhibitory behavior on XO [29]. All samples were dissolved in 20 mM sodium carbonate buffer (pH 7.5). Inhibitor solution (0, 5, 10 and 20 mM) and XO solution (from 0 to 0.1 U/mL) were mixed and incubated at 37 °C for 30 min, and the concentration of the substrate xanthine was kept constant at 0.4 mM. The absorbance at 290 nm was then determined. ν is the initial enzymatic reaction rate of the reaction, which was investigated using the same method for the XO inhibitory activity assay.\nThe type of the inhibition of XO activity by the inhibitors (peptides) was investigated using Lineweaver and Burk kinetic analysis. It was performed via evaluating the initial rate of reaction in the presence and absence of inhibitors at different xanthine concentration. Briefly, the peptide (0 and 5 mM) and XO (0.05 U/mL) were mixed and incubated in the buffer (20 mM sodium carbonate buffer, pH 7.5) for 30 min at 37 °C. Subsequently, different xanthine concentrations (0, 0.05, 0.1, 0.2 and 0.4 mM) were successively added into the solutions. Then, the dynamic changes of the absorbance at 290 nm were recorded, and ν was calculated using the same method above. Km and Vmax values, as corresponding kinetic parameters, were obtained from the Lineweaver and Burk double reciprocal plots."}, "[3]": {"biological_target": "T1, xanthine oxidase (XO)", "assay": "Fluorescence quenching of XO (Stern-Volmer analysis)", "type": "binding", "conditions": "for Kq (quenching rate constant) / Ksv (Stern-Volmer quenching constant): T 298 K; for Kq (quenching rate constant): Kq = Ksv/τ0, τ0 approximately 10^−8 s; for Ksv (Stern-Volmer quenching constant): XO 0.05 U/mL, peptide 0 to 20.0 × 10^−4 M, excitation 280 nm; for fluorescence quenching mechanism of XO: from Kq versus the collisional quenching threshold", "protocol": "Fluorescence spectra were measured on an F-7000 Spectrofluorimeter (Hitachi Ltd., Ibaraki, Japan) with a 1.0 cm quartz cell and a thermostatic bath. Briefly, 2 mL XO (0.05 U/mL) was titrated by continuous addition of peptides solution (to final concentrations ranging from 0 to 20.0 × 10^−4 M). Then, the obtained mixture was properly mixed and equilibrated for 5 min. The slit widths for excitation and emission were set to 2.5 nm. The fluorescence emission spectra were then measured in the emission wavelength range from 300 to 500 nm, under 280 nm excitation wavelengths. The following Stern-Volmer equation was used to analyze the fluorescence quenching:F0/F = 1 + Ksv [C] = 1 + Kq τ0 [C](3) where F0 and F represent the steady-state fluorescence intensities in the absence and presence of quencher, respectively. Ksv is the Stern-Volmer quenching constant. [C] is the quencher concentration. Kq is the quenching rate constant of biomolecule. Kq = Ksv/τ0, τ0 is the average lifetime of biomolecule in the absence of quencher and its value is approximately 10^−8 s. Ksv used to be estimated by linear regression plot slope of F0/F versus."}, "[4]": {"biological_target": "Xanthine oxidase (UniProt P80457)", "sequence (P80457 2-1332)": "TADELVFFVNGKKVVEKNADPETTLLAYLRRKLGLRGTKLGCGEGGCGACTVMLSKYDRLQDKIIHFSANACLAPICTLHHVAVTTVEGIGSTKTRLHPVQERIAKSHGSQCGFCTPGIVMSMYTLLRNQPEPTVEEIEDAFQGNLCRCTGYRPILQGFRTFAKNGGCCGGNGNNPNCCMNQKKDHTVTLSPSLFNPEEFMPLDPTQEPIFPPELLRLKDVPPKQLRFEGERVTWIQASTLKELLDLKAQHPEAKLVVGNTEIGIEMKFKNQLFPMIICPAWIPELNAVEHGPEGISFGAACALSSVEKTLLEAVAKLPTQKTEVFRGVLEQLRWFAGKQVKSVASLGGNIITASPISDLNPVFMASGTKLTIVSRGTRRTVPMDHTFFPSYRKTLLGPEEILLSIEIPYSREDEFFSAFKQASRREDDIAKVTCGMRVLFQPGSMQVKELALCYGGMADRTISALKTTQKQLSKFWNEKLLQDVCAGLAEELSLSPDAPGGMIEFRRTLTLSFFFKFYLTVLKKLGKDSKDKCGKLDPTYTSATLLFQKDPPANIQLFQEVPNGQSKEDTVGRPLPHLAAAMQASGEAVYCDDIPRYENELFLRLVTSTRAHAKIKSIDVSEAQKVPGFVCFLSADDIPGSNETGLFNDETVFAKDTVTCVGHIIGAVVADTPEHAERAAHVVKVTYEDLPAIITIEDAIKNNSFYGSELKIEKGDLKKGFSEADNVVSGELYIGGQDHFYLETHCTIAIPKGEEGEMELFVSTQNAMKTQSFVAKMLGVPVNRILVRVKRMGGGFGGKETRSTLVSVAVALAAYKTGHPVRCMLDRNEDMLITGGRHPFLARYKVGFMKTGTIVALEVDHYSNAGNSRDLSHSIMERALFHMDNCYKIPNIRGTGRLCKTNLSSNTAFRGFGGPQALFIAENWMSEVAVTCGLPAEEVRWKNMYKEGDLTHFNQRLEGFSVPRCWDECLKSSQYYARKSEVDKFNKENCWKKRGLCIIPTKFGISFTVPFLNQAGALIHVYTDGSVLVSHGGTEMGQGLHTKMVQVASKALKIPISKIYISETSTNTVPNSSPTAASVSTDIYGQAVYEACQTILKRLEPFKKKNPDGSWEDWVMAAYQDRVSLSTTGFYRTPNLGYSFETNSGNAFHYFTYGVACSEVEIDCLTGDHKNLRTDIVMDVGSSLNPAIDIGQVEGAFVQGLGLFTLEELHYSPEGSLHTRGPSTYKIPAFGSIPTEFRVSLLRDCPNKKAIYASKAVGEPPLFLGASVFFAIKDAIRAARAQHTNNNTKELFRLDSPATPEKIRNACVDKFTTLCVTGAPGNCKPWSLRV"}, "[5]": {"biological_target": "Xanthine oxidase (UniProt P80457)", "assay": "other fluorescence titration; quenching of the intrinsic fluorescence of XO (2 mL, 0.05 U/mL) titrated with peptide to 0-20.0 x 10^-4 M; equilibrated 5 min; excitation 280 nm, emission 300-500 nm; 298 K; Stern-Volmer analysis"}}, "note": "Marks after values point to notes of the source that are not given here."}
{"molecule": "WPDGR [pentapeptide identified from round scad hydrolysate fraction F2, chemically synthesized]", "values": [{"measurement": "XO Inhibitory Activity (%)", "setting": "[1]", "value": "16.21 ± 0.78 ^b %"}]}
{"molecule": "KGFP [tetrapeptide identified from round scad hydrolysate fraction F2, chemically synthesized]", "values": [{"measurement": "XO Inhibitory Activity (%)", "setting": "[1]", "value": "5.43 ± 0.20 ^c %"}]}
{"molecule": "FPSV [tetrapeptide identified from round scad hydrolysate fraction F2, chemically synthesized]", "values": [{"measurement": "type of XO inhibition", "setting": "[2]", "value": "mixed inhibitor"}, {"measurement": "reversibility of XO inhibition", "setting": "[2]", "value": "reversible"}, {"measurement": "XO Inhibitory Activity (%)", "setting": "[1]", "value": "22.61 ± 1.81 ^a %"}, {"measurement": "Kq (quenching rate constant)", "setting": "[3]", "value": "5.42e+10", "unit": "M⁻¹ s⁻¹"}, {"measurement": "Ksv (Stern-Volmer quenching constant)", "setting": "[3]", "value": 542, "unit": "M⁻¹"}, {"measurement": "fluorescence quenching mechanism of XO", "setting": "[3]", "value": "static"}]}
{"molecule": "FPFP [tetrapeptide identified from round scad hydrolysate fraction F2, chemically synthesized]", "values": [{"measurement": "type of XO inhibition", "setting": "[2]", "value": "mixed inhibitor"}, {"measurement": "reversibility of XO inhibition", "setting": "[2]", "value": "reversible"}, {"measurement": "XO Inhibitory Activity (%)", "setting": "[1]", "value": "20.09 ± 2.41 ^a %"}, {"measurement": "Kq (quenching rate constant)", "setting": "[3]", "value": "5.608e+11", "unit": "M⁻¹ s⁻¹"}, {"measurement": "Ksv (Stern-Volmer quenching constant)", "setting": "[3]", "value": 5608, "unit": "M⁻¹"}, {"measurement": "fluorescence quenching mechanism of XO", "setting": "[3]", "value": "static"}]}
{"molecule": "KGFP", "values": [{"measurement": "XO inhibitory activity (%) at 5 mM peptide (rate of uric acid formation, absorbance at 290 nm)", "setting": "[4]", "value": 5.43, "unit": "%"}]}
{"molecule": "FPSV", "values": [{"measurement": "XO inhibitory activity (%) at 5 mM peptide (rate of uric acid formation, absorbance at 290 nm)", "setting": "[4]", "value": 22.6, "unit": "%"}, {"measurement": "Kq (quenching rate constant)", "setting": "[5]", "value": "5.42e+10", "unit": "M⁻¹ s⁻¹"}, {"measurement": "Ksv (Stern-Volmer quenching constant)", "setting": "[5]", "value": 542, "unit": "M⁻¹"}]}
{"molecule": "FPFP", "values": [{"measurement": "XO inhibitory activity (%) at 5 mM peptide (rate of uric acid formation, absorbance at 290 nm)", "setting": "[4]", "value": 20.1, "unit": "%"}, {"measurement": "Kq (quenching rate constant)", "setting": "[5]", "value": "5.61e+11", "unit": "M⁻¹ s⁻¹"}, {"measurement": "Ksv (Stern-Volmer quenching constant)", "setting": "[5]", "value": 5610, "unit": "M⁻¹"}]}
{"molecule": "WPDGR", "values": [{"measurement": "XO inhibitory activity (%) at 5 mM peptide (rate of uric acid formation, absorbance at 290 nm)", "setting": "[4]", "value": 16.2, "unit": "%"}]}
